Earlier results, collected in US8871750B2, “Use of aromatase inhibitors for endometrial thinning in preparation for surgical procedures on the endometrial cavity and uterus” (Wayne State University, priority 2004, dated 2014).

Legend:
[1] = postmenopausal breast cancer treatment
[2] = system: endometrium; conditions: small, randomized study
[3] = system: endometrium; conditions: in vivo

Compound | effect on endometrial thickness [2] | also measured
CCC1(c2ccc(N)cc2)CCC(=O)NC1=O (centres unmarked) [aminoglutethimide] |  | patients stopping treatment because of side effects (lethargy, rashes, nausea, fever) [1]: 8-15%
CC(=O)O[C@]1(C(C)=O)CC[C@H]2[C@@H]3C=C(Cl)C4=CC(=O)[C@@H]5C[C@@H]5[C@]4(C)[C@H]3CC[C@@]21C [cyproterone acetate] | significant reduction | 
CC(=O)O[C@]1(C(C)=O)CC[C@H]2[C@@H]3C[C@H](C)C4=CC(=O)CC[C@]4(C)[C@H]3CC[C@@]21C [medroxyprogesterone acetate] | no effect | 
CC#C[C@]1(O)CC[C@H]2[C@@H]3CCC4=CC(=O)CCC4=C3[C@@H](c3ccc(N(C)C)cc3)C[C@@]21C [mifepristone] |  | effect on endometrium and menstrual bleeding [3]: marked endometrial ECM breakdown and excessive menstrual bleeding
C#C[C@]1(O)CC[C@H]2[C@@H]3CCC4=CC(=O)CC[C@@H]4[C@H]3CC[C@@]21C [norethisterone] | no effect | 
